# Measurements: patent US7771978B2, “β1,4mannosyltransferases” (priority 2003, dated 2010)
# Target: T1, Egghead β1-4-mannosyltransferase (Drosophila melanogaster, UniProt O01346)
# T1 construct: a secreted version of egghead was prepared as described for the full length construct; made in house; host or cells: baculovirus-infected Sf9 and High Five insect cells (microsomal fractions)
# T1 sequence (O01346 1-457): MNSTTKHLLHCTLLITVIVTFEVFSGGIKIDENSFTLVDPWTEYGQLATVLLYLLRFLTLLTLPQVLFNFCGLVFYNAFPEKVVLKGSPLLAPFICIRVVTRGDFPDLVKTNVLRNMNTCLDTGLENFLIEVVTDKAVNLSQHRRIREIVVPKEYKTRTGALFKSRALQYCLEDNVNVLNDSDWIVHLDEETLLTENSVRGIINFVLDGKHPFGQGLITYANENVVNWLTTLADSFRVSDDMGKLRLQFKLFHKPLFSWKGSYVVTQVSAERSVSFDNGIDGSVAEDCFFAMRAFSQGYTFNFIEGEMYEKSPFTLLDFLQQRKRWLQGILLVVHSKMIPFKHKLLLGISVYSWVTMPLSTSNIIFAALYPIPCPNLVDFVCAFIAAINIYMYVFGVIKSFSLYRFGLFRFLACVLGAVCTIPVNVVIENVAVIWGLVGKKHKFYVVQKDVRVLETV
# Assay: Egghead transfer of Man to glycosphingolipid acceptors (thin-layer chromatography/autoradiography)
# Format: biochemical
# Details: GDP-Man donor; microsomal fraction; 4 h
# Method: Microsomal fraction of egghead (Egh) and GalNAc-T4 (GT4) were incubated with Glcβ1-1Cer, LacCer, or no glycolipid and GDP-Man as described in Experimental Procedures. Autoradiography of thin-layer chromatography of reaction products (4 h). Plate was run in chloroform-methanol-water (60/38/10, v/v/v). Migration of standard glycolipids is indicated with arrows.
# Glycosphingolipids of the fruit fly are based on the arthroseries GlcNAcβ1-3Manβ1-4Glcβ1-1 Cer core. […] Evidence in support hereof was provided by showing that brainiac utilizes the product formed by egghead (FIG. 5). This assay was carried out with n-octyl-β-Glc as initial acceptor substrate because it served as a better substrate than GlcCer under the assay conditions used.
# An expression construct of the full coding region of egghead was prepared by RT-PCR using D. melanogaster mRNA and the sense primer Egh001 (5′-[…]-3′, SEQ ID NO: 4) with a BglII restriction site and the anti-sense primer Egh002 (5′-[…]-3′, SEQ ID NO: 5) with a XbaI restriction site. The resulting 1.1 Kb fragment was cloned into the BglII/XbaI sites of pVL1393 (PharMingen) and pVL1393-MYC. Furthermore an expression construct for a secreted version of egghead was prepared as described for the full length construct but using sense primer Egh003 (5′[…]-3′, SEQ ID NO: 6) with a BglII restriction site and the anti-sense primer Egh002. The resulting 1 Kb fragment was cloned into pAcGP67 Baculo-virus expression vector. Expression constructs pVL-egghead-full and pVL-egghead-Myc-full and pAcGP67-egghead-sol were co-transfected with Baculo-Gold™ DNA (Pharmingen) in Sf9 cells as described (12). […] Pellets were used at 10 mg/ml (Protein concentration determined by BCA, Pierce). Reaction products of soluble acceptors were quantified by chromatography on Dowex AG1-X8 (Sigma). Assays with glycosphingolipids included 5 mM 2-Acetamido-2-deoxy-D-Glucono-1,5-lactone (inhibitor of hexosaminidase activity), and products were purified on octadecyl-silica cartridges (Supelco) and analyzed by high performance thin-layer chromatography followed by autoradiography.
row,glycosphingolipid as acceptor substrate of egghead (in words),Substance
1,not to serve as a substrate,Galβ1-1Cer
2,does not serve as substrate,Galβ1-4Glcβ1-Cer [LacCer]
3,utilizes,Glcβ1-1Cer
